Molecular target: Oligo-1,6-glucosidase IMA1 (Saccharomyces cerevisiae S288c, UniProt P53051)
Assay: Inhibition of baker's yeast alpha-glucosidase by 4-nitrophenolate-based assay

Chain of Oligo-1,6-glucosidase IMA1 (P53051 whole entry): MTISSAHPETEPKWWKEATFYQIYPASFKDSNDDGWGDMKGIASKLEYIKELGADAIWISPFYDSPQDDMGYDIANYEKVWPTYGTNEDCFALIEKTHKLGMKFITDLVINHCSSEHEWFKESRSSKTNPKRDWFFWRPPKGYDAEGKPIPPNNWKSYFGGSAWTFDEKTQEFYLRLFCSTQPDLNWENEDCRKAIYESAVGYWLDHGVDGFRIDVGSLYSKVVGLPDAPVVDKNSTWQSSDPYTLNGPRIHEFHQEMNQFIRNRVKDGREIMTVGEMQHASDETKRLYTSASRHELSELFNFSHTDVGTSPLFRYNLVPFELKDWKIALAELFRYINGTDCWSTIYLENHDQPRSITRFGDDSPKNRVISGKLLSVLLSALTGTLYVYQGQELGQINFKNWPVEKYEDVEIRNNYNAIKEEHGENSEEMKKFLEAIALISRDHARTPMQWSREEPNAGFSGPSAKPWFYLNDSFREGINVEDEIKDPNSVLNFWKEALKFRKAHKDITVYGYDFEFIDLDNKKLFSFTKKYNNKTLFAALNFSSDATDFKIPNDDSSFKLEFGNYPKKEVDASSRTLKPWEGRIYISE

SMILES | IC50 [mM]
OCCN1C[C@@H](F)[C@@H](O)[C@H](O)[C@H]1CO | 2.1
OCCN1C[C@H](O)[C@@H](O)[C@H](O)[C@H]1CO [MIGLITOL] | 9.9

— ChEMBL document CHEMBL1155187, “Amplification of the inhibitory activity of miglitol by monofluorination” (Bioorg Med Chem Lett, 2009)
